Data published in patent US20060234985A1, “Combination therapy comprising a bisphosphonate and a hmg-coa reductase inhibitor” (priority 2002, published 2006).

Assays:
myeloma cell line LP-1 = test: tetrazolium reduction (Promega MTS) assay with isobologram analysis, LP-1; assay type: cell-based, human
Method: (§1) We investigated the cytotoxic effect of the HMG-CoA reductase inhibitor fluvastatin on the human multiple myeloma cell lines LP-1, OPM-2, U266, NCI-H929 and RPMI-8226 in vitro using a tetrazolium reduction assay. After 3 days culture in the presence of 0 to 50 μM fluvastatin, the Promega MTS assay reagent was used to determine the level of inhibition of cell proliferation and/or cell death.
(§2) Using the same assay we investigated whether the activity of fluvastatin against multiple myeloma in vitro could be enhanced by the addition of the bisphosphonate Zometa® (zoledronic acid). Using 80% cell inhibition as an end point, isobolograms were constructed to visualize the interaction between fluvastatin and Zometa®.

[1] = test system: human multiple myeloma cell lines LP-1, OPM-2, U266, NCI-H929 and RPMI-8226; test: tetrazolium reduction (Promega MTS) assay of cell proliferation and/or cell death, myeloma cell line panel; assay type: cell-based; conditions: 3 days culture, p<0.05 by paired Student's t-test
Method: as §1
as §2, with “Zometa®. […] To illustrate this point, >50 μM fluvastatin or […] Zometa® alone was required to induce 80% cell death in the myeloma cell line LP-1 but the combination of 25 μM fluvastatin and 0.21 μM Zometa® had the same effect.” for “Zometa®.”

U266 = test: tetrazolium reduction (Promega MTS) assay, U266; assay type: cell-based, human; conditions: 3 days culture
Method: as §1

OPM-2 = test: tetrazolium reduction (Promega MTS) assay, OPM-2; assay type: cell-based, human; conditions: 3 days culture
Method: as §1

SMILES	concentration required to induce 80% cell death (myeloma cell line LP-1; Zometa alone) [µM]	inhibition of proliferation ([1]; 25 μM and 50 μM, all cell lines)	fluvastatin concentration as low as which significantly inhibited proliferation ([1]; all cell lines except RPMI-8226) [µM]	inhibition at 50 μM (U266) [%]	inhibition at 50 μM (OPM-2) [%]	concentration required to induce 80% cell death (myeloma cell line LP-1; fluvastatin alone) [µM]
O=P(O)(O)C(O)(Cn1ccnc1)P(=O)(O)O [Zometa®, 2-(imidazol-1yl)-1-hydroxyethane-1,1-diphosphonic acid]	> 100	–	–	–	–	–
CC(C)n1c(/C=C/C(O)CC(O)CC(=O)O)c(-c2ccc(F)cc2)c2ccccc21 (stereo not drawn) [fluvastatin]	–	significantly inhibited proliferation	2.5	45	> 90	> 50
